Results published in PubChem BioAssay (NCI).
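In this assay, cells in 96-well plates receive the compound at five concentrations for 48 hours. Endpoints are linearly interpolated between the surrounding concentrations. GI50: concentration for 50% inhibition of growth. TGI: concentration producing complete growth inhibition.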

Legend:
Assay in all cases: NCI anticancer screen, dose series, 48 h
[1] = tested on: OVCAR-4 ovarian
[2] = tested on: ACHN renal
[3] = tested on: HT29 colon
[4] = tested on: IGROV1 ovarian
[5] = tested on: SNB-19 CNS
[6] = tested on: A498 renal
[7] = tested on: TK-10 renal
[8] = tested on: UO-31 renal
[9] = tested on: SF-539 CNS
[10] = tested on: MDA-MB-231 breast

## CCCCCCCCCCCCOC(=S)NC
[1]
  TGI: 56 µM
[2]
  TGI: 35.2 µM
[3]
  TGI: 33.1 µM
[4]
  TGI: 38.9 µM
[5]
  TGI: > 100 µM
[6]
  TGI: 41.5 µM
[7]
  TGI: 25.4 µM
[8]
  TGI: 43.7 µM
[9]
  TGI: 33.5 µM

## CC(=O)NNc1nc(C)c(C(/C=C/c2ccc(Cl)cc2)=N/NC(=S)NN)s1
[1]
  TGI: > 100 µM
[2]
  TGI: > 100 µM
[3]
  TGI: > 100 µM
[4]
  TGI: > 100 µM
[5]
  TGI: > 100 µM
[6]
  TGI: > 100 µM
[7]
  TGI: > 100 µM
[8]
  TGI: > 100 µM
[9]
  TGI: > 100 µM

## COc1cc(CCC(=O)NS(=O)(=O)c2ccccc2)cc(OC)c1OC
[1]
  TGI: > 100 µM
[2]
  TGI: > 100 µM
[3]
  TGI: > 100 µM
[4]
  TGI: > 100 µM
[5]
  TGI: > 100 µM
[6]
  TGI: > 100 µM
[7]
  TGI: > 100 µM
[8]
  TGI: > 100 µM
[9]
  TGI: > 100 µM

## COc1ccc(CC(C#N)c2cc(OC)c(OC)c(OC)c2)cc1 (stereo not given)
[1]
  TGI: > 100 µM
[10]
  TGI: 3.29 µM
[2]
  TGI: > 91.6 µM
[3]
  TGI: 5.72 µM
[4]
  TGI: > 100 µM
[5]
  TGI: > 100 µM
[7]
  TGI: > 100 µM
[8]
  TGI: > 100 µM
[9]
  TGI: 0.231 µM

## ClC1=C(Cl)C(Cl)=C(Cl)C1=Cc1ccc(Cl)cc1Cl
[1]
  GI50: 0.53 µM
  TGI: 5.89 µM
[10]
  GI50: 0.29 µM
  TGI: 1.15 µM
[3]
  GI50: 0.33 µM
  TGI: 6.4 µM
[4]
  GI50: 0.404 µM
  TGI: 3.19 µM
[5]
  GI50: 0.811 µM
  TGI: 2.93 µM
[6]
  GI50: 1.27 µM
  TGI: 2.6 µM
[9]
  GI50: 0.353 µM
  TGI: 1.4 µM

## C=C(CN(CCN1CCOCC1)CC(=C)c1ccc(C(=O)Nc2ccccc2N)cc1)c1ccc(C(=O)Nc2ccccc2N)cc1
[1]
  GI50: 10.5 µM
  TGI: > 50 µM
[10]
  GI50: 3.05 µM
  TGI: 11.2 µM
[2]
  GI50: 6.04 µM
  TGI: 13.3 µM
[4]
  GI50: 7.37 µM
  TGI: 29.1 µM
[5]
  GI50: 9.18 µM
  TGI: 33.4 µM
[7]
  GI50: 4.44 µM
  TGI: 12 µM
[8]
  GI50: 5.2 µM
  TGI: 11.4 µM
[9]
  GI50: 5.31 µM
  TGI: 16.1 µM

## CN(Cc1ccccc1)c1nc(=[N+](C)C)ss1
[1]
  TGI: > 100 µM
[2]
  TGI: > 100 µM
[3]
  TGI: > 100 µM
[4]
  TGI: > 100 µM
[5]
  TGI: > 100 µM
[6]
  TGI: > 100 µM
[7]
  TGI: > 100 µM
[8]
  TGI: > 100 µM
[9]
  TGI: > 100 µM

## c1cc(C2N3CCCN2CC3)ccn1 (stereo not given)
[1]
  TGI: > 100 µM
[10]
  TGI: > 100 µM
[2]
  TGI: > 100 µM
[3]
  TGI: > 100 µM
[4]
  TGI: > 100 µM
[5]
  TGI: > 100 µM
[6]
  TGI: > 100 µM
[7]
  TGI: > 100 µM
[8]
  TGI: > 100 µM

## Cc1cccc(NC(=O)Cc2nc3ccccc3s2)c1C
[1]
  TGI: > 100 µM
[2]
  TGI: > 100 µM
[3]
  TGI: > 100 µM
[4]
  TGI: > 100 µM
[5]
  TGI: > 100 µM
[6]
  TGI: > 100 µM
[7]
  TGI: > 100 µM
[8]
  TGI: > 100 µM
[9]
  TGI: > 100 µM

## CCc1ccccc1NC(=O)C1=C(C)NC(C)=C(C(=O)Nc2ccccc2CC)C1c1ccc(NC(C)=O)cc1
[1]
  TGI: > 100 µM
[2]
  TGI: > 100 µM
[3]
  TGI: > 100 µM
[4]
  TGI: > 100 µM
[5]
  TGI: > 100 µM
[7]
  TGI: > 100 µM
[8]
  TGI: > 100 µM
[9]
  TGI: 68 µM

## O/N=C1/C(=C/c2ccc(Cl)cc2)CCCC1C(NO)c1ccc(Cl)cc1 (stereo not given)
[1]
  TGI: 32.8 µM
[2]
  TGI: > 100 µM
[3]
  TGI: 36.6 µM
[4]
  TGI: > 100 µM
[5]
  TGI: 76.6 µM
[6]
  TGI: 38.9 µM
[7]
  TGI: > 100 µM
[8]
  TGI: 63.4 µM
[9]
  TGI: 88.1 µM

## CCCCCC/C=C/CCCCCCCc1cccc(O)c1C(=O)O
[1]
  TGI: > 100 µM
[2]
  TGI: > 100 µM
[3]
  TGI: > 100 µM
[4]
  TGI: > 100 µM
[5]
  TGI: > 100 µM
[7]
  TGI: > 100 µM
[8]
  TGI: > 100 µM
[9]
  TGI: > 100 µM

## O=C(O)C1=C(Cl)c2ccccc2S1(=O)=O
[1]
  TGI: > 100 µM
[4]
  TGI: > 100 µM
[5]
  TGI: > 100 µM
[7]
  TGI: > 100 µM
[8]
  TGI: > 100 µM

## C/C(CC(=O)Nc1ccc(NC(=O)/C(C)=N/NS(=O)(=O)c2ccc(C)cc2)cc1)=N\NS(=O)(=O)c1ccc(C)cc1
[2]
  TGI: > 100 µM
[3]
  TGI: > 100 µM
[4]
  TGI: > 100 µM
[6]
  TGI: > 100 µM
[7]
  TGI: > 100 µM
[8]
  TGI: > 100 µM
[9]
  TGI: > 100 µM

## CC(=O)Oc1cc(OC(C)=O)c2cc3c(cc2c1OC(C)=O)C(=O)C1(CCCC1)C3=O
[1]
  TGI: 33 µM
[2]
  TGI: 31.5 µM
[3]
  TGI: 30 µM
[4]
  TGI: 32.4 µM
[7]
  TGI: 31.3 µM
[8]
  TGI: 29.8 µM

## N#CNc1nc(C(=O)Nc2ccc(Cl)cc2)cc(-c2ccccc2)n1
[1]
  TGI: > 100 µM
[2]
  TGI: > 100 µM
[3]
  TGI: > 100 µM
[4]
  TGI: > 100 µM
[5]
  TGI: > 100 µM
[6]
  TGI: > 100 µM
[8]
  TGI: > 100 µM
[9]
  TGI: > 100 µM

## CCN1CCC(O)(c2ccc(Cl)c(Cl)c2)C(C(=O)c2ccc(Cl)c(Cl)c2)C1 (stereo not given)
[1]
  TGI: 32.6 µM
[2]
  TGI: 28.3 µM
[3]
  TGI: 32.2 µM
[4]
  TGI: 41.3 µM
[5]
  TGI: 35.1 µM
[6]
  TGI: 40.2 µM
[7]
  TGI: 30.5 µM
[8]
  TGI: 31.4 µM
[9]
  TGI: 32.1 µM

## CC(=O)[CH-]C(=O)c1ccccc1.CC(=O)[CH-]C(=O)c1ccccc1.CC[O-].O=C1C=C([O-])C(=O)c2ccccc21.[Ti+4]
[1]
  GI50: > 100 µM
  TGI: > 100 µM
[2]
  GI50: 66.5 µM
  TGI: > 100 µM
[3]
  GI50: 41 µM
  TGI: > 100 µM
[4]
  GI50: > 100 µM
  TGI: > 100 µM
[5]
  GI50: > 100 µM
  TGI: > 100 µM
[6]
  GI50: 81.1 µM
  TGI: > 100 µM
[8]
  GI50: > 100 µM
  TGI: > 100 µM
[9]
  GI50: > 100 µM
  TGI: > 100 µM

## CN(C)CCC(=O)NCc1c2nc3ccccc3nc2n2ccccc12
[10]
  GI50: 24.7 µM
  TGI: > 100 µM
[2]
  GI50: > 100 µM
  TGI: > 100 µM
[3]
  GI50: 35.9 µM
  TGI: > 100 µM
[4]
  GI50: 0.338 µM
  TGI: 28.4 µM
[5]
  GI50: 52.9 µM
  TGI: > 100 µM
[6]
  GI50: 22 µM
  TGI: 88.1 µM
[7]
  GI50: 16 µM
  TGI: 47.6 µM
[8]
  GI50: 20.7 µM
  TGI: > 100 µM
[9]
  GI50: 21.9 µM
  TGI: 43.2 µM

## CC(=O)OC1C/C(C)=C/[C@H](O)CC(C)/C=C/[C@@]2(C)CCC(C(C)(C)O)C12 (stereo not given in full)
[1]
  TGI: > 100 µM
[2]
  TGI: > 100 µM
[3]
  TGI: > 100 µM
[4]
  TGI: > 100 µM
[5]
  TGI: > 100 µM
[6]
  TGI: > 100 µM
[7]
  TGI: > 100 µM
[8]
  TGI: > 100 µM
[9]
  TGI: > 100 µM

## C=C(C)C1CCC2(CO)C(O)CC3(C)C(CCC4C5(C)CCC(O)C(C)(C)C5CCC43C)C12 (stereo not given)
[10]
  TGI: 57.2 µM
[2]
  TGI: 15.4 µM
[3]
  TGI: 54.7 µM
[4]
  TGI: 30 µM
[5]
  TGI: 84.1 µM
[6]
  TGI: 31.9 µM
[7]
  TGI: 30.2 µM
[8]
  TGI: 26.7 µM
[9]
  TGI: 30 µM
